# Experimental data taken from ChEMBL document CHEMBL4152384, “Pyrtriazoles, a Novel Class of Store-Operated Calcium Entry Modulators: Discovery, Biological Profiling, and in Vivo Proof-of-Concept Efficacy in Acute Pancreatitis” (J Med Chem, 2018).
# Assays:
# [1] = target: Stromal interaction molecule 1 & 2/Calcium release-activated calcium channel protein 1 (Mus musculus) (UniProt Q8BWG9+P70302+P83093); test: (§1) Modulation of STIM1/STIM2/Orai1 in mouse BV2 cells assessed as induction of store-operated calcium entry by measuring residual activity at 10 uM preincubated for 30 mins followed by tBhQ-mediated Ca2+ depletion and Ca2+ re-addition to extracellular solution measured for 600 secs by Fluo-4 AM-based fluorometric assay relative to control; type: cell-based
# [2] = target: Short transient receptor potential channel 1 & 3/Stromal interaction molecule 1/Calcium release-activated calcium channel protein 1 (Homo sapiens) (UniProt Q96D31+Q13507+Q13586+P48995); test: as §1, with “TRPC1/TRPC3/STIM1/Orai1” for “STIM1/STIM2/Orai1”, “HEK” for “mouse BV2”; type: cell-based
# Sequence of Short transient receptor potential channel 1 & 3/Stromal interaction molecule 1/Calcium release-activated calcium channel protein 1 (Homo sapiens) (P48995 whole entry partner): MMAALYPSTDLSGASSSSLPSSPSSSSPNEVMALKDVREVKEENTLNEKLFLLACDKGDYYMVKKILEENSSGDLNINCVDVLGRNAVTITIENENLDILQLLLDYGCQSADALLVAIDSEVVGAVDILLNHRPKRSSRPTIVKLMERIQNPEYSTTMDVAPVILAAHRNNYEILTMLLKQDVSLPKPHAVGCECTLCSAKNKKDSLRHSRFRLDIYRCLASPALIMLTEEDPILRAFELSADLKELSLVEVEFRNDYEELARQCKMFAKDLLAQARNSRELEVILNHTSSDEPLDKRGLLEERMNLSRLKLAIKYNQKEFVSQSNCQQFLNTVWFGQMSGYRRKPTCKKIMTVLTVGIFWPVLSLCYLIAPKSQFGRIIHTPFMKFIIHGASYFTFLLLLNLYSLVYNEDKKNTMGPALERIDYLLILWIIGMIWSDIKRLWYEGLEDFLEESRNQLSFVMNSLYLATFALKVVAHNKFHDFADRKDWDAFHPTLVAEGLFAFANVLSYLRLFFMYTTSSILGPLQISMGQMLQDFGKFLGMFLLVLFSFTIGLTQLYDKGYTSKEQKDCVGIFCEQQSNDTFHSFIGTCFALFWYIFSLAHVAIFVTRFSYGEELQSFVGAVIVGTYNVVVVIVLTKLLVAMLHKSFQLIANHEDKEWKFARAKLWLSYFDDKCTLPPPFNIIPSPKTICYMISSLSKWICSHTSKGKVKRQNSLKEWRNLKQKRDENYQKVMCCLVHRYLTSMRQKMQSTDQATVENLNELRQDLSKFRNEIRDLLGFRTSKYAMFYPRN
# Sequence of Short transient receptor potential channel 1 & 3/Stromal interaction molecule 1/Calcium release-activated calcium channel protein 1 (Homo sapiens) (Q13507 whole entry partner): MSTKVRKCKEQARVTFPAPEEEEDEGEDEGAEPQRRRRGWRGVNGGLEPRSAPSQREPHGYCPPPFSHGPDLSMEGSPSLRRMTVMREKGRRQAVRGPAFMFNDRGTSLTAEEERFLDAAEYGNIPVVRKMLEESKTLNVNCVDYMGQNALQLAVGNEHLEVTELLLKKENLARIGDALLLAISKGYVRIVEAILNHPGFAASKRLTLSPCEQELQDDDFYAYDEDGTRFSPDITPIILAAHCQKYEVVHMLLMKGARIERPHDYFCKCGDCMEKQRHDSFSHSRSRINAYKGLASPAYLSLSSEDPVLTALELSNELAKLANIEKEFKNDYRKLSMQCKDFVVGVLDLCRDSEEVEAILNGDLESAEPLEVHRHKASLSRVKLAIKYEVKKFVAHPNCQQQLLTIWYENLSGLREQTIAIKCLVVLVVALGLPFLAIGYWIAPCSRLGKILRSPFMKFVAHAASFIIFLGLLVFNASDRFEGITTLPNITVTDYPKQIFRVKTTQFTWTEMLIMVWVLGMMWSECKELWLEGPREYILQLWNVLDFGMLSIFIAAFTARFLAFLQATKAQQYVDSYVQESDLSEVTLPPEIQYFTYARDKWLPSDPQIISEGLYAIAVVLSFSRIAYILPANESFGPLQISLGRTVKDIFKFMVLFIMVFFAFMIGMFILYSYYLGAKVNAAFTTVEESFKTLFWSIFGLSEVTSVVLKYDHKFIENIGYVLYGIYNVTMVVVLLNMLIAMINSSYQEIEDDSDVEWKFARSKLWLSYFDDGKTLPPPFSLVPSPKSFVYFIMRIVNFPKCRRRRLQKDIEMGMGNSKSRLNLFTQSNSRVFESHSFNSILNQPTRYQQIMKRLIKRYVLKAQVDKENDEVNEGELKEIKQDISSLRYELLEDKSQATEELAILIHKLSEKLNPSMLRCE
# Sequence of Short transient receptor potential channel 1 & 3/Stromal interaction molecule 1/Calcium release-activated calcium channel protein 1 (Homo sapiens) (Q13586 23-685 partner limits assumed): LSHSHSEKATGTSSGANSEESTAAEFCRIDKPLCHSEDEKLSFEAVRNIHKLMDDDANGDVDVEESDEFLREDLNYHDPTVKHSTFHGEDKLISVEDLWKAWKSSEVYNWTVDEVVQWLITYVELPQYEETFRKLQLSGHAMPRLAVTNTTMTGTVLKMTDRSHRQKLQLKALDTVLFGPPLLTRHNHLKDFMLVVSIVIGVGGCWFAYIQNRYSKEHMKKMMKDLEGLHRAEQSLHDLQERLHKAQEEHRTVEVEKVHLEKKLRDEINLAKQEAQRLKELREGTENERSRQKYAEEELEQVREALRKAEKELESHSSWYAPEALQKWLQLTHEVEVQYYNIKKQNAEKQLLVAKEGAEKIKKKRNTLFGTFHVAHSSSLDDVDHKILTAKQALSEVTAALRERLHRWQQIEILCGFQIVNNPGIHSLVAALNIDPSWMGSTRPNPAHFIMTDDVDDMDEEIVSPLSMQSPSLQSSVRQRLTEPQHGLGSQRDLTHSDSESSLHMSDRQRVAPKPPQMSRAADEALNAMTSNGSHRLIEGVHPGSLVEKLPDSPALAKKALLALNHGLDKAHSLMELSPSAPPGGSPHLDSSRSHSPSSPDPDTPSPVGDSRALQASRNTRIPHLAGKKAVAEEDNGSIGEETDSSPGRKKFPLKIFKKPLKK
# Sequence of Short transient receptor potential channel 1 & 3/Stromal interaction molecule 1/Calcium release-activated calcium channel protein 1 (Homo sapiens) (Q96D31 whole entry): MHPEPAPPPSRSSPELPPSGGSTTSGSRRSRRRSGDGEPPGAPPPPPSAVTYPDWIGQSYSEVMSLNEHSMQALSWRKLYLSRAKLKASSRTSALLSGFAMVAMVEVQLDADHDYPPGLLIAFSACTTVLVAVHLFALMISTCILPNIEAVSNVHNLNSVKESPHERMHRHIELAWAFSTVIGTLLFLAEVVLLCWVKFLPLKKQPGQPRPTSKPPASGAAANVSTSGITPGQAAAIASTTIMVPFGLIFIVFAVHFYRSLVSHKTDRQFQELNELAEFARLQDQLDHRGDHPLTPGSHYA
Activity [1] [%],Activity [2] [%],SMILES
105,–,COc1cccc(-c2cn(-c3ccc(-n4nc(C(F)(F)F)cc4C(F)(F)F)cc3)nn2)c1
–,> 90,O=C(O)c1cccc(-c2cn(-c3ccc(-n4ncc(C(=O)O)c4C(F)(F)F)cc3)nn2)c1
93.2,–,CCOC(=O)c1cnn(-c2ccc(-c3cn(-c4ccc(N)cc4)nn3)cc2)c1C(F)(F)F
72,–,CCOC(=O)c1cnn(-c2ccc(-n3cc(-c4ccccc4NC(C)=O)nn3)cc2)c1C(F)(F)F
77,–,CCOC(=O)c1cnn(-c2ccc(-c3cn(-c4ccccn4)nn3)cc2)c1C(F)(F)F
88.6,–,CCOC(=O)c1cnn(-c2ccc(-n3cc(-c4ccc(Cl)cc4)nn3)cc2)c1C(F)(F)F
–,> 90,CCOC(=O)c1cnn(-c2ccc(C(=O)Nc3cccc(C(=O)O)c3)cc2)c1C(F)(F)F
94.7,–,FC(F)(F)c1cc(C(F)(F)F)n(-c2ccc(-n3cc(-c4ccncc4)nn3)cc2)n1
113,–,CCOC(=O)c1cnn(-c2ccc(-c3cn(-c4cc(OC)cc(OC)c4)nn3)cc2)c1C(F)(F)F
86.1,–,CCOC(=O)c1cnn(-c2ccc(-n3cc(-c4ccccc4)nn3)cc2)c1C(F)(F)F
99.4,–,CCOC(=O)c1cnn(-c2ccc(-n3cc(-c4cc(OC)cc(OC)c4)nn3)cc2)c1C(F)(F)F
98.5,–,CC(=O)Nc1ccc(-c2cn(-c3ccc(-n4nc(C(F)(F)F)cc4C(F)(F)F)cc3)nn2)cc1
62.6,–,CCOC(=O)c1cnn(-c2ccc(-c3cn(-c4cccnc4)nn3)cc2)c1C(F)(F)F
114,–,FC(F)(F)c1cc(C(F)(F)F)n(-c2ccc(-n3cc(-c4ccccn4)nn3)cc2)n1
95.6,–,CCOC(=O)c1cnn(-c2ccc(-n3cc(-c4ccc(OC)cc4)nn3)cc2)c1C(F)(F)F
99.7,–,FC(F)(F)c1cc(C(F)(F)F)n(-c2ccc(-c3cn(-c4ccccc4)nn3)cc2)n1
109,–,COc1ccc(-c2cn(-c3ccc(-n4nc(C(F)(F)F)cc4C(F)(F)F)cc3)nn2)cc1OC
96.5,–,CCOC(=O)c1cnn(-c2ccc(-n3cc(-c4cccc(O)c4)nn3)cc2)c1C(F)(F)F
97.5,–,CCOC(=O)c1cnn(-c2ccc(-c3cn(-c4ccccc4)nn3)cc2)c1C(F)(F)F
93.2,–,CC(=O)Nc1ccccc1-c1cn(-c2ccc(-n3nc(C(F)(F)F)cc3C(F)(F)F)cc2)nn1
80.5,–,COc1cc(-c2cn(-c3ccc(-n4nc(C(F)(F)F)cc4C(F)(F)F)cc3)nn2)ccc1O

Activity [1] [%],Activity [2] [%],SMILES
98.1,–,Nc1ccc(-c2cn(-c3ccc(-n4nc(C(F)(F)F)cc4C(F)(F)F)cc3)nn2)cc1
103,–,Nc1cccc(-c2cn(-c3ccc(-n4nc(C(F)(F)F)cc4C(F)(F)F)cc3)nn2)c1
87.8,–,FC(F)(F)c1cc(C(F)(F)F)n(-c2ccc(-n3cc(-c4cccnc4)nn3)cc2)n1
98.8,–,CC(=O)Nc1ccc(-n2cc(-c3ccc(-n4nc(C(F)(F)F)cc4C(F)(F)F)cc3)nn2)cc1
98.1,–,CC(=O)Nc1cccc(-c2cn(-c3ccc(-n4nc(C(F)(F)F)cc4C(F)(F)F)cc3)nn2)c1
106,–,CCOC(=O)c1cnn(-c2ccc(-n3cc(-c4ccc(NC(C)=O)cc4)nn3)cc2)c1C(F)(F)F
75.3,–,CCOC(=O)c1cnn(-c2ccc(-n3cc(-c4cccc(NC(C)=O)c4)nn3)cc2)c1C(F)(F)F
83.1,–,CCOC(=O)c1cnn(-c2ccc(-c3cn(-c4ccc(OC)cc4)nn3)cc2)c1C(F)(F)F
101,–,CCOC(=O)c1cnn(-c2ccc(-c3cn(-c4ccc(Oc5ccccc5)cc4)nn3)cc2)c1C(F)(F)F
80.1,–,O=C(O)CCCc1cn(-c2ccc(-n3nc(C(F)(F)F)cc3C(F)(F)F)cc2)nn1
117,–,CCOC(=O)c1cnn(-c2ccc(-c3cn(-c4cccc(OC)c4)nn3)cc2)c1C(F)(F)F
82.8,–,CCOC(=O)c1cnn(-c2ccc(-n3cc(-c4ccc(OC)c(OC)c4)nn3)cc2)c1C(F)(F)F
72.2,–,CCOC(=O)c1cnn(-c2ccc(-n3cc(CCCC(=O)O)nn3)cc2)c1C(F)(F)F
105,–,CCOC(=O)c1cnn(-c2ccc(-n3cc(-c4cccc(OC)c4)nn3)cc2)c1C(F)(F)F
84,–,FC(F)(F)c1cc(C(F)(F)F)n(-c2ccc(-c3cn(-c4ccncc4)nn3)cc2)n1
–,> 90,CCOC(=O)c1cnn(-c2ccc(-n3nncc3-c3cccc(C(=O)O)c3)cc2)c1C(F)(F)F
106,–,Fc1cnccc1-n1cc(-c2ccc(-n3nc(C(F)(F)F)cc3C(F)(F)F)cc2)nn1
–,> 90,CCOC(=O)c1cnn(-c2ccc(-c3cn(-c4cccc(CO)c4)nn3)cc2)c1C(F)(F)F
80.2,–,O=C(O)c1cccc(-n2cc(-c3ccc(-n4nc(C(F)(F)F)cc4C(F)(F)F)cc3)nn2)c1
81,–,CCOC(=O)c1cnn(-c2ccc(-n3cc(-c4ccccn4)nn3)cc2)c1C(F)(F)F
91.6,–,CCOC(=O)c1cnn(-c2ccc(-n3cc(-c4cccnc4)nn3)cc2)c1C(F)(F)F

Activity [1] [%],Activity [2] [%],SMILES
73.5,–,FC(F)(F)c1cc(C(F)(F)F)n(-c2ccc(-n3cc(-c4ccc(Oc5ccccc5)cc4)nn3)cc2)n1
–,> 90,CCOC(=O)c1cnn(-c2ccc(-n3cc(-c4cccc(C(=O)OC)c4)nn3)cc2)c1C(F)(F)F
81.7,–,O=C(O)CCCn1cc(-c2ccc(-n3nc(C(F)(F)F)cc3C(F)(F)F)cc2)nn1
77,–,FC(F)(F)c1cc(C(F)(F)F)n(-c2ccc(-c3cn(-c4cccnc4)nn3)cc2)n1
–,83.6,CCOC(=O)c1cnn(-c2ccc(-n3cc(-c4cccc(S(N)(=O)=O)c4)nn3)cc2)c1C(F)(F)F
–,> 90,NC(=O)c1cnn(-c2ccc(-n3cc(-c4cccc(C(=O)O)c4)nn3)cc2)c1C(F)(F)F
99.6,–,COc1ccc(-c2cn(-c3ccc(-n4nc(C(F)(F)F)cc4C(F)(F)F)cc3)nn2)cc1
–,72.1,CCOC(=O)c1cnn(-c2ccc(-n3cc(-c4cccc(C(N)=O)c4)nn3)cc2)c1C(F)(F)F
78.7,–,COc1ccc(-n2cc(-c3ccc(-n4nc(C(F)(F)F)cc4C(F)(F)F)cc3)nn2)cc1
107,–,CCOC(=O)c1cnn(-c2ccc(-n3cc(-c4ccncc4F)nn3)cc2)c1C(F)(F)F
99.2,–,FC(F)(F)c1cc(C(F)(F)F)n(-c2ccc(-n3cc(-c4ccccc4)nn3)cc2)n1
–,> 90,CC(C)CCOC(=O)c1cnn(-c2ccc(-n3cc(-c4cccc(C(=O)O)c4)nn3)cc2)c1C(F)(F)F
101,–,CC(=O)Nc1cccc(-n2cc(-c3ccc(-n4nc(C(F)(F)F)cc4C(F)(F)F)cc3)nn2)c1
106,–,CCOC(=O)c1cnn(-c2ccc(-c3cn(-c4cccc(O)c4)nn3)cc2)c1C(F)(F)F
93.7,–,COc1cc(OC)cc(-n2cc(-c3ccc(-n4nc(C(F)(F)F)cc4C(F)(F)F)cc3)nn2)c1
91.7,–,CCOC(=O)c1cnn(-c2ccc(-n3cc(-c4ccc(N)cc4)nn3)cc2)c1C(F)(F)F
–,> 90,CC(C)NC(=O)c1cnn(-c2ccc(-n3cc(-c4cccc(C(=O)O)c4)nn3)cc2)c1C(F)(F)F
90.2,–,Fc1cnccc1-c1cn(-c2ccc(-n3nc(C(F)(F)F)cc3C(F)(F)F)cc2)nn1
79.8,–,CCOC(=O)c1cnn(-c2ccc(-c3cn(-c4ccncc4)nn3)cc2)c1C(F)(F)F
90.2,–,Nc1ccc(-n2cc(-c3ccc(-n4nc(C(F)(F)F)cc4C(F)(F)F)cc3)nn2)cc1
108,–,CCOC(=O)c1cnn(-c2ccc(-c3cn(-c4ccc(NC(C)=O)cc4)nn3)cc2)c1C(F)(F)F

Activity [1] [%],Activity [2] [%],SMILES
88.8,–,FC(F)(F)c1cc(C(F)(F)F)n(-c2ccc(-c3cn(-c4ccccn4)nn3)cc2)n1
–,> 90,CCOC(=O)c1cnn(-c2ccc(-c3cn(-c4cccc(C(C)=O)c4)nn3)cc2)c1C(F)(F)F
–,> 90,CC(C)=CCC/C(C)=C/COC(=O)c1cnn(-c2ccc(-n3cc(-c4cccc(C(=O)O)c4)nn3)cc2)c1C(F)(F)F
106,–,FC(F)(F)c1cc(C(F)(F)F)n(-c2ccc(-n3cc(-c4ccc(Cl)cc4)nn3)cc2)n1
113,–,COc1cccc(-n2cc(-c3ccc(-n4nc(C(F)(F)F)cc4C(F)(F)F)cc3)nn2)c1
–,> 90,O=C(O)c1cccc(-c2cn(-c3ccc(-n4ncc(C(=O)OCCN5CCOCC5)c4C(F)(F)F)cc3)nn2)c1
94.3,–,COc1ccc(-n2cc(-c3ccc(-n4nc(C(F)(F)F)cc4C(F)(F)F)cc3)nn2)cc1OC
–,> 90,CCOC(=O)c1cnn(-c2ccc(-n3cc(-c4cccc(C(=O)NS(C)(=O)=O)c4)nn3)cc2)c1C(F)(F)F
113,–,CCOC(=O)c1cnn(-c2ccc(-c3cn(-c4ccc(OC)c(OC)c4)nn3)cc2)c1C(F)(F)F
–,> 90,O=C(O)c1cccc(-c2cn(-c3ccc(-n4ncc(C(=O)OCc5ccncc5)c4C(F)(F)F)cc3)nn2)c1
83.8,–,CCOC(=O)c1cnn(-c2ccc(-n3cc(-c4ccc(Oc5ccccc5)cc4)nn3)cc2)c1C(F)(F)F
85.6,–,Nc1cccc(-n2cc(-c3ccc(-n4nc(C(F)(F)F)cc4C(F)(F)F)cc3)nn2)c1
75.2,–,COc1cc(OC)cc(-c2cn(-c3ccc(-n4nc(C(F)(F)F)cc4C(F)(F)F)cc3)nn2)c1
–,> 90,O=C(O)c1cccc(-c2cn(-c3ccc(-n4ncc(CO)c4C(F)(F)F)cc3)nn2)c1
95.9,–,Oc1cccc(-c2cn(-c3ccc(-n4nc(C(F)(F)F)cc4C(F)(F)F)cc3)nn2)c1
117,–,CCOC(=O)c1cnn(-c2ccc(-c3cn(-c4cccc(NC(C)=O)c4)nn3)cc2)c1C(F)(F)F
105,–,Oc1cccc(-n2cc(-c3ccc(-n4nc(C(F)(F)F)cc4C(F)(F)F)cc3)nn2)c1
68.1,–,CCOC(=O)c1cnn(-c2ccc(-n3cc(-c4ccncc4)nn3)cc2)c1C(F)(F)F
116,–,FC(F)(F)c1cc(C(F)(F)F)n(-c2ccc(-c3cn(-c4ccc(Cl)cc4)nn3)cc2)n1
90.2,–,FC(F)(F)c1cc(C(F)(F)F)n(-c2ccc(-c3cn(-c4ccc(Oc5ccccc5)cc4)nn3)cc2)n1
